Measurements as given in patent US6376497B1, “Antifungal azole derivatives having a fluorinated vinyl group and process for preparing same” (Korea Research Institute of Chemical Technology, priority 1999, dated 2002).

Assays:
Experiment in all cases: In vitro antifungal activity, microbroth dilution MIC
Format in all cases: cell-based
Candida albicans C1-2 = details: 4 to 48 hours; for Minimal inhibitory concentration (MIC): C. albicans C1-2, RPMI-1640, 35° C.; for Minimal inhibitory concentration(MIC), C. albicans C1-2: RPMI-1640, 35° C., no growth observed
Experimental: (§1) In vitro antifungal activities of the inventive antifungal compounds were evaluated using the test strains shown in Table VIII by the following microbroth dilution method which is a modified version of the procedure recommended by National Committee for Clinical Laboratory Standards(see National Committee for Clinical Laboratory Standards, 1992, Reference methods for broth dilution antifungal susceptibility testing of yeasts, Proposed standard M27-P, National Committee for clinical laboratory standards, Villanova, Pa; and National Committee for Clinical Laboratory Standards, 1995, Reference methods for broth dilution antifungal susceptibility testing of yeasts. Tentative standard M27-T, National Committee for clinical laboratory standards, Villanova, Pa).
(§2) Sabourad Dextrose Agar(Difco) was used as a culture medium, and RPMI-1640 broth(Sigma. Co. w/L-glutamine, wo/NaHCO3)(0.165 M MOPS, pH 7.0), as a dilution medium.
(§3) Each of the test strains were subcultured in Sabourad Dextrose Agar medium twice and a stain sample was taken from prominent colonies and suspended in sterile physiological saline solution in a cap tube. The turbidity of the suspension was adjusted to that of the Mcfarland 0.5 standard sample(approximately 10^6 CFU/ml). Then the suspension was diluted 500-fold with sterile RPMI-1640 liquid medium to 2×10^3 CFU/ml.
(§4) Each of the test compounds(the compounds obtained in Examples 1 to 150 and comparative compounds, i.e., fluconazole(FCZ) and itraconazole (ICZ)), was dissolved in DMSO to give a stock solution having a concentration of 4000 μg/ml and the stock solution was successively diluted to obtain test solutions having test compound concentrations of 200, 100, 50, 25, 12.5, 6.25, 3.13, 1.56, 0.78, 0.39, 0.20 and 0.10 μg/ml, respectively.
(§5) 0.1 ml portion of the test solutions were added to the wells of a sterile 96 well plate. Then, 0.1 ml portion of each of the test strain solutions were added successively to the wells and the plate was incubated at 35° C. for 4 to 48 hours.
(§6) Minimal inhibitory concentration(MIC) of each compound was defined as the concentration of the test compound where no growth of the strain could be observed.

[1] = system: Cryptococcus neoformans IFM. 40092; details: 4 to 48 hours; for Minimal inhibitory concentration (MIC): Cry. neoformans IFM. 40092, RPMI-1640, 35° C.
Experimental: as §1, §2, §3, §4, §5, §6

[2] = system: Candida pseudotropicalis K. 11658; details: 4 to 48 hours; for Minimal inhibitory concentration (MIC): C. pseudotropicalis K. 11658, RPMI-1640, 35° C.; for Minimal inhibitory concentration(MIC), C. pseudotropicalis K. 11658: RPMI-1640, 35° C., no growth observed
Experimental: as §1, §2, §3, §4, §5, §6

[3] = system: Torulopsis glabrata B. 16205; details: 4 to 48 hours; for Minimal inhibitory concentration (MIC): T. glabrata B. 16205, RPMI-1640, 35° C.; for Minimal inhibitory concentration(MIC), T. glabrata B. 16205: RPMI-1640, 35° C., no growth observed
Experimental: as §1, §2, §3, §4, §5, §6

[4] = system: Cryptococcus neoformans A. 34144; details: 4 to 48 hours; for Minimal inhibitory concentration (MIC): Cry. neoformans A. 34144, RPMI-1640, 35° C.; for Minimal inhibitory concentration(MIC), Cry. neoformans A. 34144: RPMI-1640, 35° C., no growth observed
Experimental: as §1, §2, §3, §4, §5, §6

[5] = system: Aspergillus furnigatus B. 19119; details: 4 to 48 hours; for Minimal inhibitory concentration (MIC): A furnigatus B. 19119, RPMI-1640, 35° C.; for Minimal inhibitory concentration(MIC), A furnigatus B. 19119: RPMI-1640, 35° C., no growth observed
Experimental: as §1, §2, §3, §4, §5, §6

Candida krusei K. 11655 = details: 4 to 48 hours; for Minimal inhibitory concentration (MIC): C. krusei K. 11655, RPMI-1640, 35° C.; for Minimal inhibitory concentration(MIC), C. krusei K. 11655: RPMI-1640, 35° C., no growth observed
Experimental: as §1, §2, §3, §4, §5, §6

[6] = system: Candida tropicalis A. 13803; details: 4 to 48 hours; for Minimal inhibitory concentration (MIC): C. tropicalis A. 13803, RPMI-1640, 35° C.; for Minimal inhibitory concentration(MIC), C. tropicalis A. 13803: RPMI-1640, 35° C., no growth observed
Experimental: as §1, §2, §3, §4, §5, §6

[7] = system: Cryptococcus neoformans B. 42419; details: 4 to 48 hours; for Minimal inhibitory concentration (MIC): Cry. neoformans B. 42419, RPMI-1640, 35° C.; for Minimal inhibitory concentration(MIC), Cry. neoformans B. 42419: RPMI-1640, 35° C., no growth observed
Experimental: as §1, §2, §3, §4, §5, §6

[8] = system: Trichophyton mentagrophytes A. 9129; details: 4 to 48 hours; for Minimal inhibitory concentration (MIC): T. mentagrophytes A. 9129, RPMI-1640, 35° C.; for Minimal inhibitory concentration(MIC), T. mentagrophytes A. 9129: RPMI-1640, 35° C., no growth observed
Experimental: as §1, §2, §3, §4, §5, §6

[9] = system: Candida albicans IFO. 1385; details: 4 to 48 hours; for Minimal inhibitory concentration (MIC): C. albicans IFO. 1385, RPMI-1640, 35° C.; for Minimal inhibitory concentration(MIC), C. albicans IFO. 1385: RPMI-1640, 35° C., no growth observed
Experimental: as §1, §2, §3, §4, §5, §6

[10] = system: Candida albicans A. 10231; details: 4 to 48 hours; for Minimal inhibitory concentration (MIC): C. albicans A. 10231, RPMI-1640, 35° C.
Experimental: as §1, §2, §3, §4, §5, §6

[11] = system: Candida parapsitosis A. 7330; details: 4 to 48 hours; for Minimal inhibitory concentration (MIC): C. parapsitosis A. 7330, RPMI-1640, 35° C.; for Minimal inhibitory concentration(MIC), C. parapsitosis A. 7330: RPMI-1640, 35° C., no growth observed
Experimental: as §1, §2, §3, §4, §5, §6

[12] = system: Aspergillus niger A. 16404; details: 4 to 48 hours; for Minimal inhibitory concentration (MIC): A. niger A. 16404, RPMI-1640, 35° C.; for Minimal inhibitory concentration(MIC), A. niger A. 16404: RPMI-1640, 35° C., no growth observed
Experimental: as §1, §2, §3, §4, §5, §6

[13] = system: Trichophyton mentagrophytes B. 32663; details: 4 to 48 hours; for Minimal inhibitory concentration (MIC): T. mentagrophytes B. 32663, RPMI-1640, 35° C.; for Minimal inhibitory concentration(MIC), T. mentagrophytes B. 32663: RPMI-1640, 35° C., no growth observed
Experimental: as §1, §2, §3, §4, §5, §6

[14] = RPMI-1640, 35° C., no growth observed

Row | SMILES | Minimal inhibitory concentration (MIC) (Candida albicans C1-2) [µg/mL] | Minimal inhibitory concentration (MIC) [1] | Minimal inhibitory concentration (MIC) [2] [µg/mL] | Minimal inhibitory concentration (MIC) [3] [µg/mL] | Minimal inhibitory concentration (MIC) [4] [µg/mL] | Minimal inhibitory concentration (MIC) [5] [µg/mL] | Minimal inhibitory concentration (MIC) (Candida krusei K. 11655) [µg/mL] | Minimal inhibitory concentration (MIC) [6] [µg/mL] | Minimal inhibitory concentration (MIC) [7] [µg/mL] | Minimal inhibitory concentration (MIC) [8] [µg/mL] | Minimal inhibitory concentration (MIC) [9] | Minimal inhibitory concentration (MIC) [10] [µg/mL] | Minimal inhibitory concentration (MIC) [11] [µg/mL] | Minimal inhibitory concentration (MIC) [12] [µg/mL] | Minimal inhibitory concentration (MIC) [13] [µg/mL] | also measured
1 | FC(OCC1COC(Cn2ccnc2)(c2ccc(Cl)cc2Cl)O1)=C(c1cccc(F)c1)C(F)(F)F (mixture of isomers) [Ex. 32] | 6.25 | 0.39 µg/mL | 100 | 12.5 | 0.78 | 50.0 | >100 | 25.0 | 1.56 | 12.5 | 0.78 µg/mL | 6.25 | >100 | 100 | 6.25 | 
2 | FC(OCC1COC(Cn2ccnc2)(c2ccc(Cl)cc2Cl)O1)=C(c1ccc(F)cc1)C(F)(F)F (mixture of isomers) [Ex. 33] | 12.5 | 0.78 µg/mL | 100 | 25.0 | 1.56 | 100 | 100 | 50.0 | 1.56 | 25.0 | 1.56 µg/mL | 6.25 | >100 | 100 | 12.5 | 
3 | FC(OCC1COC(Cn2ccnc2)(c2ccc(Cl)cc2Cl)O1)=C(c1cc(Cl)cc(Cl)c1)C(F)(F)F (mixture of isomers) [Ex. 34] | 6.25 | 0.39 µg/mL | 12.5 | 6.25 | 1.56 | 3.13 | 25.0 | 12.5 | 1.56 | 1.56 | 0.39 µg/mL | 6.25 | 12.5 | 6.25 | 0.78 | 
4 | FC(OCC1COC(Cn2ccnc2)(c2ccc(Cl)cc2Cl)O1)=C(c1cccs1)C(F)(F)F (mixture of isomers) [Ex. 35] | 25.0 | 0.78 µg/mL | >100 | 25.0 | 1.56 | 100 | >100 | 100 | 1.56 | 25.0 | 1.56 µg/mL | 25.0 | >100 | 100 | 6.25 | 
5 | FC(=Cc1ccccc1)OCC1COC(Cn2ccnc2)(c2ccc(F)cc2F)O1 (mixture of isomers) [Ex. 36] | 50.0 | 0.78 µg/mL | 25.0 | 25.0 | 6.25 | 1.56 | 50.0 | 100 | 3.13 | 1.56 | 0.78 µg/mL | 50.0 | 25.0 | 12.5 | 0.39 | 
6 | FC(=Cc1ccc2c(c1)OCO2)OCC1COC(Cn2ccnc2)(c2ccc(F)cc2F)O1 (mixture of isomers) [Ex. 46] | 25.0 | ≦0.10 μg/ml | 12.5 | 12.5 | 0.78 | 1.56 | 25.0 | 50.0 | 0.78 | 0.39 | ≦0.10 μg/ml |  | 25.0 | 12.5 | 0.20 | 
7 | CCc1ccc(C(=C(F)Oc2ccc(OCC3COC(Cn4ccnc4)(c4ccc(Cl)cc4Cl)O3)cc2)C(F)(F)F)cc1 (mixture of isomers) [Ex. 95] |  |  |  |  |  |  |  |  |  |  |  |  |  |  |  | Minimal inhibitory concentration(MIC), C. albicans C1-2 (Candida albicans C1-2): >100 µg/mL; Minimal inhibitory concentration(MIC), C. pseudotropicalis K. 11658 [2]: >100 µg/mL; Minimal inhibitory concentration(MIC), T. glabrata B. 16205 [3]: >100 µg/mL; Minimal inhibitory concentration(MIC), Cry. neoformans A. 34144 [4]: 3.13 µg/mL; Minimal inhibitory concentration(MIC), A furnigatus B. 19119 [5]: >100 µg/mL; Minimal inhibitory concentration(MIC), C. krusei K. 11655 (Candida krusei K. 11655): >100 µg/mL; Minimal inhibitory concentration(MIC), C. tropicalis A. 13803 [6]: >100 µg/mL; Minimal inhibitory concentration(MIC), Cry. neoformans B. 42419 [7]: 6.25 µg/mL; Minimal inhibitory concentration(MIC), T. mentagrophytes A. 9129 [8]: 50.0 µg/mL; Minimal inhibitory concentration(MIC), C. albicans IFO. 1385 [9]: 6.25 µg/mL; Minimal inhibitory concentration(MIC), C. albicans A. 10231 [10, 14]: >100 µg/mL; Minimal inhibitory concentration(MIC), C. parapsitosis A. 7330 [11]: >100 µg/mL; Minimal inhibitory concentration(MIC), A. niger A. 16404 [12]: >100 µg/mL; Minimal inhibitory concentration(MIC), T. mentagrophytes B. 32663 [13]: 50.0 µg/mL
8 | Cc1ccc(C(=C(F)N2CCN(c3ccc(OCC4COC(Cn5ccnc5)(c5ccc(Cl)cc5Cl)O4)cc3)CC2)C(F)(F)F)cc1 (mixture of isomers) [Ex. 126] |  |  |  |  |  |  |  |  |  |  |  |  |  |  |  | Minimal inhibitory concentration(MIC), C. albicans C1-2 (Candida albicans C1-2): >100 µg/mL; Minimal inhibitory concentration(MIC), Cry. neoformans IFM. 40092 [1, 14]: ≦0.10 μg/ml; Minimal inhibitory concentration(MIC), C. pseudotropicalis K. 11658 [2]: 1.56 µg/mL; Minimal inhibitory concentration(MIC), T. glabrata B. 16205 [3]: >100 µg/mL; Minimal inhibitory concentration(MIC), Cry. neoformans A. 34144 [4]: 0.78 µg/mL; Minimal inhibitory concentration(MIC), A furnigatus B. 19119 [5]: >100 µg/mL; Minimal inhibitory concentration(MIC), C. krusei K. 11655 (Candida krusei K. 11655): 3.13 µg/mL; Minimal inhibitory concentration(MIC), C. tropicalis A. 13803 [6]: >100 µg/mL; Minimal inhibitory concentration(MIC), Cry. neoformans B. 42419 [7]: 0.78 µg/mL; Minimal inhibitory concentration(MIC), T. mentagrophytes A. 9129 [8]: 12.5 µg/mL; Minimal inhibitory concentration(MIC), C. albicans IFO. 1385 [9]: 1.56 µg/mL; Minimal inhibitory concentration(MIC), C. parapsitosis A. 7330 [11]: 3.13 µg/mL; Minimal inhibitory concentration(MIC), A. niger A. 16404 [12]: >100 µg/mL; Minimal inhibitory concentration(MIC), T. mentagrophytes B. 32663 [13]: 6.25 µg/mL
